“And” between values parts separate entries of the source, which are not always exact repeats. Equal entries are not always repeated.
Key:
Lck = target: T1, Lck (Mus musculus, UniProt P06240); assay: Continuous spectrophotometric kinase activity assay; type: biochemical, murine
T1 construct: murine Lck (residues 227-509); made in house
Excerpt: (§1) Kinase domain constructs of human c-Abl (residues 229-512), chicken c-Src (residues 251-533 and residues 83-533), murine Lck (residues 227-509), and human Hck (residues 166-445) were expressed as previously described (Seeliger, Young et al. 2005; Seeliger, Nagar et al. 2007; the entire contents of each of which are incorporated by reference herein). Mutations were introduced into chicken c-Src (residues 251-533) (T338I, C277Q, L297M) by site-directed mutagenesis and verified by DNA sequencing.
(§2) In vitro kinase inhibition assays were performed using either a continuous spectrophotometric assay or a FRET-based endpoint assay.
(§3) The original characterization of kinase inhibition was performed with a commercial kinase assay that relies on a fluorescently labeled peptide kinase substrate (Z-LYTE, Invitrogen). For further characterization, a continuous spectrophotometric kinase activity assay was employed that is easily adapted to different substrate peptides as well as a wider range of peptide and ATP concentrations.

[1] = test system: 3T3 cells (src−/−) stably transfected with c-Src Y529F; assay: Global phosphotyrosine Western blot (4G10) in c-Src Y529F-transfected cells; type: cell-based, murine
Experimental: Cells were cultured in 48-well tissue culture plates in DMEM+10% FBS until they reached confluence. After removing serum-containing medium, cells were washed with serum-free DMEM, and small molecule inhibitor in serum-free DMEM with 2% DMSO was added to each well and incubated overnight. After incubation with compound, cells were washed once with PBS and lysed in Cell Extraction Buffer (Invitrogen), a modified RIPA buffer, supplemented with PMSF and protease inhibitors according to the manufacturer's instruction. Cell lysates were quantified by BCA assay (Pierce Biotechnology) and an equivalent amount of lysate was loaded into each lane of a 4-12% polyacrylamide gel, and separated by SDS-PAGE. Separated proteins were transferred onto a PVDF membrane, and blocked for one hour with 5% BSA in TBST buffer. The membrane was then incubated overnight at 4° C. with 4G10 anti-phosphotyrosine antibody (Millipore) and a β-tubulin antibody (Sigma) as a loading control. Fluorescent anti-mouse and anti-rabbit secondary antibodies (LI-COR) were added prior to imaging the membrane.
Having obtained macrocycle Src kinase inhibitors with nanomolar in vitro potency, the potency for inhibition of Src kinase activity in living cells was assessed. Since intracellular Src kinase signaling is complex and tightly regulated, a cell culture line transfected with a constitutively active form of murine c-Src was chosen. 3T3 cells (src−/−) stably transfected with c-Src Y529F were compared to 3T3 cells (src−/−) transfected with empty vector. Anti-phosphotryosine Western blotting with the 4G10 antibody (Millipore) indicated a marked difference between global phosphotyrosine levels in the c-Src Y529F transfected cells compared to those transfected with empty vector; in fact, almost all detectable intracellular phosphotyrosine in the Src-transfected cell line was a result of c-Src Y529F and downstream signaling (FIG. 23, upper panel, compare lanes 2 and 3, transfected and trated with DMSO, against lanes 8 and 9, transfected with empty vector).
Briefly, cells were seeded in a 48-well plate and grown to confluence in Dulbecco's Modified Eagle Medium (DMEM) supplemented with 10% fetal bovine serum (FBS). Individual wells were then treated with 10 or 100 μM concentration of macrocycle in serum-free DMEM overnight. After removing the small molecule and washing with phosphate-buffered saline, cells were lysed in radioimmunoprecipitation assay (RIPA) buffer, and global phosphotyrosine levels were quantified by Western blot.

[2] = target: T2, Src kinase domain (chicken c-Src residues 251-533) (Gallus gallus, UniProt P00523); assay: Continuous spectrophotometric kinase activity assay; type: biochemical; conditions: for IC50: Src kinase domain
T2 construct: chicken c-Src (residues 251-533 and residues 83-533); made in house
Excerpt: as §1, §2, §3

Abl = target: T3, Abl (Homo sapiens, UniProt P00519); assay: as above; type: biochemical
T3 construct: human c-Abl (residues 229-512); made in house
T3 sequence (P00519 229-512): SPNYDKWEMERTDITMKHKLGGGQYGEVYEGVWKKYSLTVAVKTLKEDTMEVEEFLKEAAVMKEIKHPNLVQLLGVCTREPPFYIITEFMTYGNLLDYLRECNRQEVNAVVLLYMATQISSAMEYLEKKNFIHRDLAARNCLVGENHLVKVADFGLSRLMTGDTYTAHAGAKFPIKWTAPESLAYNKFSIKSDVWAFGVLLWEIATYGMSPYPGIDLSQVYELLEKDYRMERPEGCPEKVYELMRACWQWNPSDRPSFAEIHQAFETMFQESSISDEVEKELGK
Excerpt: as §1, §2, §3

[3] = target: T4, full-length chicken c-Src (Gallus gallus, UniProt P00523); assay: Z'-LYTE kinase assay (Tyr 02 substrate peptide), full-length c-Src; type: biochemical; conditions: for IC50: full-length chicken c-Src, ATP near KM (50 μM)
T4 construct: assayed against full-length chicken c-Src
Experimental: (§4) For the FRET-based endpoint assay, kinase assays were performed using Invitrogen's Z′-LYTE kinase assay using the Tyr 02 substrate peptide (based upon the optimal Abl substrate peptide […]) according to the manufacturer's instructions. Assays were performed at near KM ATP concentrations for full-length c-Src and full-length c-Src T338I-50 μM and 7 μM, respectively.
Derivatives of MC4 were synthesized by Fmoc solid-phase peptide synthesis and assayed against full-length chicken c-Src using Invitrogen's Z′-LYTE kinase assay. […] Holding the amino acids at the A and C positions constant, variants of MC4 containing phenylalanine, cyclohexylalanine, pentafluorophenylalanine, and N-methyl-phenylalanine at the B position in place of furylalanine were synthesized and assayed.

HCK = HCK (Homo sapiens, UniProt P08631); assay: Continuous spectrophotometric kinase activity assay; type: biochemical; parameters: Kinase domain constructs of human c-Abl (residues 229-512), chicken c-Src (residues 251-533 and residues 83-533), murine Lck (residues 227-509), and human Hck (residues 166-445); made in house
Excerpt: as §1, §2, §3

Src Thr338Ile = assay: Inhibition of Src gatekeeper mutant; type: biochemical, chicken
Excerpt: as §1, §4

Pim1 = Pim1 (Homo sapiens, UniProt P11309); assay: Z'-LYTE kinase assay (Invitrogen SelectScreen); type: biochemical; conditions: for IC50: Pim1
Excerpt: (§5) Macrocycles A10-B1-C11-D5 and A10-B8-C11-D5 were enriched 2- to 6-fold upon selection for binding Akt3, MAPKAPK2, Pim1, and VEGFR2 (FIG. 6). These two macrocycles are structurally similar, sharing nitrophenylalanine (A10) and cyclohexylstatine (C11) building blocks as well as the same lysine scaffold (D5), and differ only at the B building block with either furylalanine (B1) or cyclohexylalanine (B8) (FIG. 6). For assay purposes, the macrocycles were synthesized with C-terminal PEG-diamine linkers to aid solubility, and then tested for the ability to inhibit Akt3, MAPKAPK2, Pim1 and VEGFR2.
(§6) Src IC50 determinations and single-point inhibition measurements were performed using Invitrogen's Z′-LYTE Tyr 02 assay kit according to the manufacturer's protocols. All kinase assays were performed at ATP concentrations near KM,ATP values, except where noted otherwise. Active human Src kinase was obtained from Millipore. For kinome profiling and IC50 determinations against non-Src kinases, compounds were submitted to Invitrogen's SelectScreen Kinase Profiling Service.

Akt3 = Akt3 (Homo sapiens, UniProt Q9Y243); assay: Z'-LYTE kinase assay (Invitrogen SelectScreen); type: biochemical
Excerpt: as §5, §6

MAPKAPK2 (MK2) = MAPKAPK2 (MK2) (Homo sapiens, UniProt P49137); assay: Z'-LYTE kinase assay (Invitrogen SelectScreen); type: biochemical; conditions: for IC50: MK2 (MAPKAPK2)
Excerpt: as §5, §6

VEGFR2 (KDR) = VEGFR2 (KDR) (Homo sapiens, UniProt P35968); assay: Z'-LYTE kinase assay (Invitrogen SelectScreen); type: biochemical
Excerpt: as §5, §6

[4] = target: p38α-MAPKAPK2 kinase cascade (P38α-MK2) (Homo sapiens, UniProt P49137+Q16539); assay: Z'-LYTE kinase cascade assay (Invitrogen SelectScreen); type: biochemical
Excerpt: as §5, §6

[5] = 5 μM ATP, 100 μM Src optimal peptide
[6] = 5 μM ATP, 100 μM Src optimal peptide, listed as Macrocycle 1.2
[7] = 5 μM ATP, 300 μM Src optimal peptide
[8] = 250 μM ATP, 300 μM Src optimal peptide
[9] = 10 or 100 μM macrocycle overnight

Chain of Pim1 (P11309 whole entry): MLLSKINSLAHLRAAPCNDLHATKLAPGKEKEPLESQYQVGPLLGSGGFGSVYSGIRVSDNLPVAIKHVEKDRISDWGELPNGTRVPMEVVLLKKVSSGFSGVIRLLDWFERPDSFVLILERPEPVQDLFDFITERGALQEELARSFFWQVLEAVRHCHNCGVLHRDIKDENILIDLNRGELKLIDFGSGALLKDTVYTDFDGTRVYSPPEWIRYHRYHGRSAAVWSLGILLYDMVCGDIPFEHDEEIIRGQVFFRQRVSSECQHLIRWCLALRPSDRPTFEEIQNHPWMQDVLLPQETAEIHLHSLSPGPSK
Chain of MAPKAPK2 (MK2) (P49137 whole entry): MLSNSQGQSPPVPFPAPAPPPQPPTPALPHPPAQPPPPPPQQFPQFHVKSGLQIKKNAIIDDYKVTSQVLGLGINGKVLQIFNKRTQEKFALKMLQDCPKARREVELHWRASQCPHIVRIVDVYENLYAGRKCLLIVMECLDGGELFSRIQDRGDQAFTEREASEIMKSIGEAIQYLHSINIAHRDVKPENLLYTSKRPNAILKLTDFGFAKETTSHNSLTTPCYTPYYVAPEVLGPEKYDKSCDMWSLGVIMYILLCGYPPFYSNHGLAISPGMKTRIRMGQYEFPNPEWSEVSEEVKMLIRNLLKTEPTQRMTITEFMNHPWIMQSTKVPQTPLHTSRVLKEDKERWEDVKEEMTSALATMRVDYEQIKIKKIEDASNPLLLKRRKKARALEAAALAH
T1 sequence (P06240 227-509): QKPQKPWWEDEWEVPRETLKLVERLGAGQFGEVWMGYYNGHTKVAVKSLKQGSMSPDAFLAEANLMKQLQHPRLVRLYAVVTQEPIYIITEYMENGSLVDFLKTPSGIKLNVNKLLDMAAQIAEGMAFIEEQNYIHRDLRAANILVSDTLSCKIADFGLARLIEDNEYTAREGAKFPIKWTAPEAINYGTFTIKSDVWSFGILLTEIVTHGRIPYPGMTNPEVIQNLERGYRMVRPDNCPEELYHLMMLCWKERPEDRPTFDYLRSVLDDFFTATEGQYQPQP
Chain of Akt3 (Q9Y243 whole entry): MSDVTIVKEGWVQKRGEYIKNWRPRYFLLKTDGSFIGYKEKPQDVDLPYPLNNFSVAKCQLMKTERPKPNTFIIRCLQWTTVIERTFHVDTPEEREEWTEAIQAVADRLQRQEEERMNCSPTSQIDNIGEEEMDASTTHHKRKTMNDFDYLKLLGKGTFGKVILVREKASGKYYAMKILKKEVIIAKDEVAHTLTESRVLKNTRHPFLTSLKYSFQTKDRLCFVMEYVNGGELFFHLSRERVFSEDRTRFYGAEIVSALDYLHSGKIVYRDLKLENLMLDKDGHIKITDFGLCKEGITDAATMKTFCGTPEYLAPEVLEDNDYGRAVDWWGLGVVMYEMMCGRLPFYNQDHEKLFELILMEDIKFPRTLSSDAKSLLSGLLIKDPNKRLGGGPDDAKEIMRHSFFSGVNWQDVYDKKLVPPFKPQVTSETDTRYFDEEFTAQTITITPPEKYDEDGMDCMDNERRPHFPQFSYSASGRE
Chain of p38α-MAPKAPK2 kinase cascade (P38α-MK2) (Q16539 whole entry): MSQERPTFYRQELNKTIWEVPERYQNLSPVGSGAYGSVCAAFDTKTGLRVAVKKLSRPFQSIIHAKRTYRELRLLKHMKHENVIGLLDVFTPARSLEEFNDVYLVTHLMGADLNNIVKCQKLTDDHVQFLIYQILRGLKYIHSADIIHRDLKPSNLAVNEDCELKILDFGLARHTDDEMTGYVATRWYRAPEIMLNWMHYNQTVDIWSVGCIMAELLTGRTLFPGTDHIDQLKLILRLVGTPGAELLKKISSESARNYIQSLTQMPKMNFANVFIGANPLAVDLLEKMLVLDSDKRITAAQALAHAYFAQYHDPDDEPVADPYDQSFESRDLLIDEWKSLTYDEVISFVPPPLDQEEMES
Chain of p38α-MAPKAPK2 kinase cascade (P38α-MK2) (P49137 whole entry): as the sequence (P49137 whole entry) above
Chain of HCK (P08631 262-515 limits assumed): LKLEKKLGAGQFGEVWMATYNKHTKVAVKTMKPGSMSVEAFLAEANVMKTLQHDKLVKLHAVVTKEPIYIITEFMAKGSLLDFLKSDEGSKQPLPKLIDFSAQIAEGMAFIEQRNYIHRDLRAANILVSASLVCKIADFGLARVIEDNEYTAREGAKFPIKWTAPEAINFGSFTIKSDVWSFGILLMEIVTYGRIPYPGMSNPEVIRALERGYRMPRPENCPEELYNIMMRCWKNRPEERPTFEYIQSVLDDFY
Chain of VEGFR2 (KDR) (P35968 20-1356): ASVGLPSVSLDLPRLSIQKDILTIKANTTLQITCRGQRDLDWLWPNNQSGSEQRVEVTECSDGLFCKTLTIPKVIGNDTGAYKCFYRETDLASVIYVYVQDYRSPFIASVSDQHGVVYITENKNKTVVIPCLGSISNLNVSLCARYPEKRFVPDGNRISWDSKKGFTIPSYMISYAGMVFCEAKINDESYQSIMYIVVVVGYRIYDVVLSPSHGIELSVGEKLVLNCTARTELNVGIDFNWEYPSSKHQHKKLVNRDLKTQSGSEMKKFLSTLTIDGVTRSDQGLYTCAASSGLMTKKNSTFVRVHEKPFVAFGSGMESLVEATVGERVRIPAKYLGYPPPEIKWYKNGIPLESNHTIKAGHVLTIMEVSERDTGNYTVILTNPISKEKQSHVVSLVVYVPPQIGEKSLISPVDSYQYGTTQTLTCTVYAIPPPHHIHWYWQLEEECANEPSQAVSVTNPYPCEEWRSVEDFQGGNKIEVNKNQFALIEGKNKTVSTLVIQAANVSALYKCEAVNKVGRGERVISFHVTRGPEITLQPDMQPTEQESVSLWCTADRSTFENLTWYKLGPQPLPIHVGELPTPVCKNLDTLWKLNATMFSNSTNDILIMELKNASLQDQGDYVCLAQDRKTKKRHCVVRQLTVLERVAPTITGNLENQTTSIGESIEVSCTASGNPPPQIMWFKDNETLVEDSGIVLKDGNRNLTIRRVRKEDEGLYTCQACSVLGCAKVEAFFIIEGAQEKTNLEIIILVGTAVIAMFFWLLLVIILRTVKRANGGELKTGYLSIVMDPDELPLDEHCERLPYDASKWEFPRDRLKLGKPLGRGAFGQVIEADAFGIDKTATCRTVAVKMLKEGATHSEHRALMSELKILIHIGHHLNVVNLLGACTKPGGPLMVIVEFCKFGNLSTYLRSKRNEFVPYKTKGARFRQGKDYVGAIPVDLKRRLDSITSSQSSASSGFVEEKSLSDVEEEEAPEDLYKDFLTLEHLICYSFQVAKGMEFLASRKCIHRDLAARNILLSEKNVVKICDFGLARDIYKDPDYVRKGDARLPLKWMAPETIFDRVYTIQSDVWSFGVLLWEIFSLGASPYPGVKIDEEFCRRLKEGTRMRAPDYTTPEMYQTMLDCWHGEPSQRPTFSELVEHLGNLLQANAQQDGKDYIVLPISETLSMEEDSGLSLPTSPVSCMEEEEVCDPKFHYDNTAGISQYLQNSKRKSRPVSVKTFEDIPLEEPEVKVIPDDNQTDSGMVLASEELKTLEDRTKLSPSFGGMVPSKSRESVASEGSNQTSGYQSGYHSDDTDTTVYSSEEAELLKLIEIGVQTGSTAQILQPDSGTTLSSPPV

Compound: O=C1/C=C\C(=O)N[C@@H](CC2CCCCC2)C(=O)N[C@@H](Cc2ccccc2)C(=O)N[C@@H](CCCNC(=O)c2cnccn2)C(=O)NCC[C@@H](C(=O)O)N1 [MC1.2]
- IC50 (Lck; [5]): 4 µM
- IC50 (Lck; [6]): ≤ 0.87 µM
- IC50 (Lck; [7]): 1.9 µM
- IC50 (Lck; [8]): 2.4 µM
- reduction of global tyrosine phosphorylation (in words) ([1]; 100 μM): did not reduce global tyrosine phosphorylation
- IC50 [2, 5]: 0.07 µM
- IC50 [2, 6]: ≤ 0.07 µM
- IC50 [2, 7]: 0.12 µM
- IC50 [2, 8]: 0.14 µM
- increase in IC50 upon increasing substrate peptide 3-fold to 300 μM ([2]; Src optimal substrate peptide 100 to 300 μM): 50%
- IC50 (Abl; [5]): > 100 µM
- IC50 (Abl; [7]): > 100 µM
- IC50 (Abl; [8]): > 100 µM
- increase in Src inhibition potency relative to parent macrocycle [3]: > 150 fold
- IC50 [3]: ≤ 0.004 µM
- IC50 (HCK; [5]): 0.36 µM
- IC50 (HCK; [6]): ≤ 0.36 µM
- IC50 (HCK; [7]): 0.46 µM
- IC50 (HCK; [8]): 1 µM

Compound: NC(=O)[C@@H]1CCCNC(=O)[C@H](Cc2ccc([N+](=O)[O-])cc2)NC(=O)[C@H](Cc2ccccc2)NC(=O)[C@H](CC2CCCCC2)NC(=O)/C=C/C(=O)N1 [MC4.2]
- reduction of global phosphotyrosine levels (in words) [1, 9]: modest reduction
- EC50 ([1]; overnight treatment, serum-free DMEM, read-out: EC50 of reduction of global phosphotyrosine levels): > 100 µM
- inhibition of Src Thr338Ile gatekeeper mutant (in words) (Src Thr338Ile): retained their inhibition potency
- IC50 [2, 5]: 0.6 µM
- increase in Src inhibition potency relative to parent macrocycle [3]: > 10 fold
- IC50 [3]: 0.006 µM

Compound: NC(=O)[C@@H]1CCCNC(=O)[C@H](Cc2ccc([N+](=O)[O-])cc2)NC(=O)[C@H](Cc2ccc(F)cc2)NC(=O)[C@H](CC2CCCCC2)NC(=O)/C=C/C(=O)N1 [MC4.3]
- reduction of global phosphotyrosine levels (in words) [1, 9]: higher levels of tyrosine phosphorylation inhibition
- inhibition of Src Thr338Ile gatekeeper mutant (in words) (Src Thr338Ile): retained their inhibition potency
- Src inhibition relative to parent compound (in words) [3]: retained all of the parent compound activity

Compound: CC(C)(C)n1nc(-c2ccc(Cl)cc2)c2c(N)ncnc21 [PP2, reference compound]
- reduction of global phosphotyrosine levels (in words) ([1]; 10 μM): reduction of global phosphotyrosine to levels comparable with those observed in the cells transfected with empty vector

Compound: NCCOCCOCCNC(=O)[C@@H]1CCCCNC(=O)[C@H](Cc2ccc([N+](=O)[O-])cc2)NC(=O)[C@H](Cc2ccco2)NC(=O)C[C@H](O)[C@H](CC2CCCCC2)NC(=O)/C=C\C(=O)N1 [cis-A10-B1-C11-D5]
- inhibition of Pim1 (in words) (Pim1; isolated kinase enzyme, non-DNA-linked form): did not inhibit
- inhibition of Akt3 (in words) (Akt3; isolated kinase enzyme): did not inhibit
- inhibition of MAPKAPK2 (in words) (MAPKAPK2 (MK2); isolated kinase enzyme): did not inhibit
- increase of VEGFR2 enzyme activity (VEGFR2 (KDR); 10 μM macrocycle): 70%
- increase of VEGFR2 enzyme activity (VEGFR2 (KDR); 100 μM compound): 300%
- IC50 [4]: 6.4 µM and 6.5 µM

Compound: NCCOCCOCCNC(=O)[C@@H]1CCCCNC(=O)[C@H](Cc2ccc([N+](=O)[O-])cc2)NC(=O)[C@H](CC2CCCCC2)NC(=O)C[C@H](O)[C@H](CC2CCCCC2)NC(=O)/C=C\C(=O)N1 [cis-A10-B8-C11-D5]
- IC50 (Pim1): 7.5 µM and 7.3 µM
- IC50 (Akt3; Akt3): 8.7 µM and 8.4 µM
- IC50 (MAPKAPK2 (MK2)): 6.1 µM
- IC50 [4]: 3.4 µM

Compound: NCCOCCOCCNC(=O)[C@@H]1CNC(=O)[C@@H](Cc2ccc(C(=O)c3ccccc3)cc2)NC(=O)[C@H](CC2CCCCC2)NC(=O)[C@H](C/C=C/c2ccccc2)NC(=O)/C=C\C(=O)N1 [cis-A12-B8-C10-D8]
- IC50 (Pim1): 17 µM
- IC50 (MAPKAPK2 (MK2)): 47 µM
- IC50 [4]: 14 µM
